According to patent US20250230193A1, “CYCLIC COMPOUND HAVING SELECTIVE KRAS INHIBITORY EFFECT ON HRAS AND NRAS” (CHUGAI SEIYAKU KABUSHIKI KAISHA, priority 2022, published 2025):
Where a SMILES comes first, the peptide text is derived from it. Bridges are numbered along the chain shown (N, C = ends). [ ]: non-standard residue; d: D form. The star is where a group is joined. hPhe(3,5-F2-4-CF3) = N[C@@H](CCc1cc(F)c(C(F)(F)F)c(F)c1)C(=O)O; hPhe(3-Cl-4-CF3) = N[C@@H](CCc1ccc(C(F)(F)F)c(Cl)c1)C(=O)O; NPrPhe(4-CF3) = CCCN[C@@H](Cc1ccc(C(F)(F)F)cc1)C(=O)O; Morpholine(3S-CO) = O=C(O)[C@@H]1COCCN1; NMeGly(cPent) = CN[C@H](C(=O)O)C1CCCC1; Pro(4,4-F2) = O=C(O)[C@@H]1CC(F)(F)CN1; NMeD = CN[C@@H](CC(=O)O)C(=O)O; NMeL = CN[C@@H](CC(C)C)C(=O)O; Iva = CC[C@](C)(N)C(=O)O; Morpholide = C1CN(*)CCO1; NMeA = CN[C@@H](C)C(=O)O; Ac5c = NC1(C(=O)O)CCCC1; Aze = O=C(O)[C@@H]1CCN1; Sar = CNCC(=O)O

Key:
[1] = target: GDP-bound NRAS wild-type protein (Homo sapiens, UniProt P01111); test: Binding to NRAS by surface plasmon resonance (SPR), Single Cycle Kinetics; settings: SPR; for NRAS/KRAS (ratio of KD value with respect to NRAS to KD value with respect to KRAS): GDP-bound NRAS wild-type vs GDP-bound KRAS wild-type
[2] = target: GDP-bound HRAS wild-type protein (Homo sapiens, UniProt P01112); test: Binding to HRAS by surface plasmon resonance (SPR), Single Cycle Kinetics; settings: SPR; for HRAS/KRAS (ratio of KD value with respect to HRAS to KD value with respect to KRAS): GDP-bound HRAS wild-type vs GDP-bound KRAS wild-type
GDP-bound HRAS wild-type protein, sequence (P01112 whole entry): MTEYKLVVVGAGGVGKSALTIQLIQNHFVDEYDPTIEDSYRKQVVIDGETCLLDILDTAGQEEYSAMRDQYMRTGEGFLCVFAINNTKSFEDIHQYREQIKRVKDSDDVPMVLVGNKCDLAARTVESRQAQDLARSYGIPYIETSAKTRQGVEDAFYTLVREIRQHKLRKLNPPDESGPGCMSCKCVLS

GDP-bound NRAS wild-type protein, sequence (P01111 whole entry): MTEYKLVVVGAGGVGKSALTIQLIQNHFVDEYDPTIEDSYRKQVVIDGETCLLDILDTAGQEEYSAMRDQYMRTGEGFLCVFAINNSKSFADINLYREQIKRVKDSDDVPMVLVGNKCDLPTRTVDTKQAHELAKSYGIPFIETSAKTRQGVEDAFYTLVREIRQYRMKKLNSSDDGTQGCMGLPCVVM

CCCN1C(=O)CN(C)C(=O)CN(C)C(=O)[C@H]([C@@H](C)CC)NC(=O)[C@H](CC(C)C)N(C)C(=O)C[C@@H](C(=O)N2CCOCC2)N(C)C(=O)[C@H](C2CCCC2)N(C)C(=O)C2(CCCC2)NC(=O)[C@@H]2COCCN2C(=O)[C@H](CCc2ccc(C(F)(F)F)c(Cl)c2)NC(=O)CN(C)C(=O)[C@@H]1Cc1ccc(C(F)(F)F)cc1 [PP0265] ([NMeL]I[Sar][Sar][NPrPhe(4-CF3)][Sar][hPhe(3-Cl-4-CF3)][Morpholine(3S-CO)][Ac5c][NMeGly(cPent)][NMeD]-Morpholide; lactam N-11)
NRAS/KRAS (ratio of KD for GDP-bound NRAS wild-type to KD for KRAS) [1]: B (a compound having 3 or more and less than 10 is denoted as B) | HRAS/KRAS (ratio of KD for GDP-bound HRAS wild-type to KD for KRAS) [2]: C (A compound having a KD ratio of 0.1 or more and less than 3 is denoted as C)

CCO[C@@H]1C[C@H]2C(=O)NC3(CC(C)(C)C3)C(=O)N(C)[C@@H](C(CC)CC)C(=O)N(C)[C@H](C(=O)N(C)C)CC(=O)N(C)[C@@H](CC(C)C)C(=O)N[C@@H]([C@@H](C)CC)C(=O)N(C)CC(=O)N(C)[C@H]3C/C=C\CCN(C3=O)[C@@H](Cc3ccc(C)cc3)C(=O)N(C)CC(=O)N[C@@H](CCc3cc(F)c(C(F)(F)F)c(F)c3)C(=O)N2C1 [PP2141]
NRAS/KRAS (ratio of KD value with respect to NRAS to KD value with respect to KRAS) [1]: A (a compound having 10 or more and less than 20 is denoted as A) | HRAS/KRAS (ratio of KD value with respect to HRAS to KD value with respect to KRAS) [2]: A (a compound having 10 or more and less than 20 is denoted as A)

CCCN1C(=O)CN(C)C(=O)CN(C)C(=O)[C@H]([C@@H](C)CC)NC(=O)[C@H](CC(C)C)N(C)C(=O)C[C@@H](C(=O)N(C)C)N(C)C(=O)[C@H](C2CCCC2)N(C)C(=O)[C@](C)(CC)NC(=O)[C@@H]2CCCN2C(=O)[C@H](CCc2cc(F)c(C(F)(F)F)c(F)c2)NC(=O)CN(C)C(=O)[C@@H]1Cc1ccc(C(F)(F)F)cc1 [PP0805] ([NMeL]I[Sar][Sar][NPrPhe(4-CF3)][Sar][hPhe(3,5-F2-4-CF3)]P[Iva][NMeGly(cPent)][NMeD]-NMe2; lactam N-11)
NRAS/KRAS (ratio of KD value with respect to GDP-bound NRAS wild-type protein to KD value with respect to KRAS) [1]: B (a compound having 3 or more and less than 10 is denoted as B) | HRAS/KRAS (ratio of KD value with respect to GDP-bound HRAS wild-type protein to KD value with respect to KRAS) [2]: C (A compound having a KD ratio of 0.1 or more and less than 3 is denoted as C)

CCC[C@H]1C(=O)N[C@@H]([C@@H](C)CC)C(=O)N(C2CC2)CC(=O)N(C)[C@H]2C/C=C\CCN(C2=O)[C@@H](Cc2ccc(C(F)(F)F)cc2)C(=O)N(C)CC(=O)N[C@@H](CCc2ccc(C(F)(F)F)c(OC)c2)C(=O)N2C[C@H](OCC)C[C@H]2C(=O)N(C)C2(CCC2)C(=O)N(C)[C@@H](C(CC)CC)C(=O)N(C)[C@H](C(=O)N(C)C)CC(=O)N1C [PP2313]
NRAS/KRAS (ratio of KD value with respect to NRAS to KD value with respect to KRAS) [1]: AA (a compound having 20 or more is denoted as AA) | HRAS/KRAS (ratio of KD value with respect to HRAS to KD value with respect to KRAS) [2]: A (a compound having 10 or more and less than 20 is denoted as A)

CCCN1C(=O)[C@@H]2CCN2C(=O)[C@H](C)N(C)C(=O)[C@H]([C@@H](C)CC)NC(=O)[C@H](CC(C)C)N(C)C(=O)C[C@@H](C(=O)N2CCOCC2)NC(=O)[C@H](C2CCCC2)N(C)C(=O)C2(CCCC2)NC(=O)[C@@H]2CC(F)(F)CN2C(=O)[C@H](CCc2ccc(C(F)(F)F)c(Cl)c2)NC(=O)CN(C)C(=O)[C@@H]1Cc1ccc(C(F)(F)F)cc1 [PP0345] ([NMeL]I[NMeA][Aze][NPrPhe(4-CF3)][Sar][hPhe(3-Cl-4-CF3)][Pro(4,4-F2)][Ac5c][NMeGly(cPent)]D-Morpholide; lactam N-11)
NRAS/KRAS (ratio of KD for GDP-bound NRAS wild-type to KD for KRAS) [1]: C (A compound having a KD ratio of 0.1 or more and less than 3 is denoted as C) | HRAS/KRAS (ratio of KD for GDP-bound HRAS wild-type to KD for KRAS) [2]: B (a compound having 3 or more and less than 10 is denoted as B)

CCO[C@@H]1C[C@H]2C(=O)NC3(CCC3)C(=O)N(C)[C@@H](C3CCCC3)C(=O)N(C)[C@H](C(=O)N(C)C)CC(=O)N(C)[C@@H](CCOC)C(=O)N[C@@H]([C@@H](C)CC)C(=O)N(C)CC(=O)N(C)[C@H]3CCCCCN(C3=O)[C@@H](Cc3ccc(F)cc3)C(=O)N(C)CC(=O)N[C@@H](CCc3cc(F)c(C(F)(F)F)c(F)c3)C(=O)N2C1 [PP1194]
NRAS/KRAS (ratio of KD value with respect to NRAS to KD value with respect to KRAS) ([1]; KD ratio): B (a compound having 3 or more and less than 10 is denoted as B) | HRAS/KRAS (ratio of KD value with respect to HRAS to KD value with respect to KRAS) ([2]; KD ratio): B (a compound having 3 or more and less than 10 is denoted as B)

CCO[C@@H]1C[C@H]2C(=O)NC3(CC(C)(C)C3)C(=O)N(C)[C@@H](C(CC)CC)C(=O)N(C)[C@H](C(=O)N(C)C)CC(=O)N(C)[C@@H](CC(C)C)C(=O)N[C@@H]([C@@H](C)CC)C(=O)N(C)CC(=O)N(C)[C@H]3C/C=C\CCN(C3=O)[C@@H](Cc3ccc(C(F)(F)F)cc3)C(=O)N(C)CC(=O)N[C@@H](CCc3ccc(C(F)(F)F)c(Cl)c3)C(=O)N2C1 [PP2132]
NRAS/KRAS (ratio of KD value with respect to NRAS to KD value with respect to KRAS) [1]: AA (a compound having 20 or more is denoted as AA) | HRAS/KRAS (ratio of KD value with respect to HRAS to KD value with respect to KRAS) [2]: A (a compound having 10 or more and less than 20 is denoted as A)

CC[C@H](C)[C@@H]1NC(=O)[C@H](CC(C)C)N(C)C(=O)C[C@@H](C(=O)N2CCOCC2)N(C)C(=O)[C@H](C2CCCC2)N(C)C(=O)C2(CCCC2)NC(=O)[C@H](C)N(CC)C(=O)[C@H](CCc2cc(F)c(C(F)(F)F)c(F)c2)NC(=O)CN(C)C(=O)[C@H](Cc2ccc(C(F)(F)F)cc2)N2CCCC[C@@H](C2=O)N(C)C(=O)CN(C)C1=O [PP0589]
NRAS/KRAS (ratio of KD value with respect to GDP-bound NRAS wild-type protein to KD value with respect to KRAS) [1]: B (a compound having 3 or more and less than 10 is denoted as B) | HRAS/KRAS (ratio of KD value with respect to GDP-bound HRAS wild-type protein to KD value with respect to KRAS) [2]: B (a compound having 3 or more and less than 10 is denoted as B)

CC[C@H](C)[C@@H]1NC(=O)[C@H](CC(C)C)N(C)C(=O)C[C@@H](C(=O)N2CCOCC2)N(C)C(=O)[C@H](C2CCCC2)N(C)C(=O)C2(CCCCC2)NC(=O)[C@@H]2CCCN2C(=O)[C@H](CCc2cc(F)c(C(F)(F)F)c(F)c2)NC(=O)CN(C)C(=O)[C@H](Cc2ccc(C(F)(F)F)cc2)N2CCCC[C@@H](C2=O)N(C)C(=O)CN(C)C1=O [PP0561]
NRAS/KRAS (ratio of KD value with respect to GDP-bound NRAS wild-type protein to KD value with respect to KRAS) [1]: B (a compound having 3 or more and less than 10 is denoted as B) | HRAS/KRAS (ratio of KD value with respect to GDP-bound HRAS wild-type protein to KD value with respect to KRAS) [2]: B (a compound having 3 or more and less than 10 is denoted as B)

CCO[C@@H]1CCN2C(=O)[C@H](CCc3cc(F)c(C(F)(F)F)c(F)c3)NC(=O)CN(C)C(=O)[C@H](Cc3ccc(C(F)(F)F)cc3)N3CCCCC[C@@H](C3=O)N(C)C(=O)CN(C)C(=O)[C@H]([C@@H](C)CC)NC(=O)[C@H](CC(C)C)N(C)C(=O)C[C@@H](C(=O)N3CCOCC3)N(C)C(=O)[C@H](C3CCCC3)N(C)C(=O)C3(CCC3)NC(=O)[C@H]12 [PP1082]
NRAS/KRAS (ratio of KD value with respect to NRAS to KD value with respect to KRAS) ([1]; KD ratio): A (a compound having 10 or more and less than 20 is denoted as A) | HRAS/KRAS (ratio of KD value with respect to HRAS to KD value with respect to KRAS) ([2]; KD ratio): B (a compound having 3 or more and less than 10 is denoted as B)

CCO[C@@H]1C[C@H]2C(=O)NC3(CCC3)C(=O)N(C)[C@@H](C3CCCC3)C(=O)N(C)[C@H](C(=O)N(C)C)CC(=O)N(C)[C@@H](CC)C(=O)N[C@@H]([C@@H](C)CC)C(=O)N3CCSC[C@H]3C(=O)N(C)[C@H]3C/C=C\CCN(C3=O)[C@@H](Cc3ccc(C(F)(F)F)cc3)C(=O)N(C)CC(=O)N[C@@H](CCc3cc(F)c(C(F)(F)F)c(F)c3)C(=O)N2C1 [PP1060]
NRAS/KRAS (ratio of KD value with respect to NRAS to KD value with respect to KRAS) ([1]; KD ratio): A (a compound having 10 or more and less than 20 is denoted as A) | HRAS/KRAS (ratio of KD value with respect to HRAS to KD value with respect to KRAS) ([2]; KD ratio): A (a compound having 10 or more and less than 20 is denoted as A)
